Among the data in patent US20230012560A1, “HEPATITIS B ANTIVIRAL AGENTS” (TAIGEN BIOTECHNOLOGY CO., LTD., priority 2019, published 2023) are EC50 values, retold here.

This test has as its system HBV (HepAD38 cells). The test can be described thus: Real-Time PCR Assay (extracellular HBV DNA from HepAD38 culture supernatants). In kind it is cell-based. Particulars: Hepatitis B virus, 120 h, compound treatment for 5 days without tetracycline, extracellular DNA in culture supernatant quantified by real-time PCR, read-out: EC50 (50% effective concentration). The protocol:
HepAD38 cells were seeded and cultured on 96-well plates. After incubation for 2 days, cells were fed with compound-containing media without tetracycline. After compound treatment for 5 days, culture supernatants were collected. Extracellular DNA was then extracted using LabTurbo DNA mini kit, and quantified by real-time PCR.
Real-time PCR was performed using an ABI QuantStudio 3 system in a 96-well optical plate format. The PCR mixture containing forward primer (5′-[…]-3′) (SEQ ID NO.1), reverse primer (5′-GGTGAGTGATTGGAGGTTG-3′) (SEQ ID NO.2) and Luna Universal qPCR Master Mix in a final volume of 24 μl was incubated at 95° C. for 10 min followed by 45 cycle of incubation at 95° C. for 10 s and 60° C. for 10 s. Regression analysis was performed using GraphPad Prism 5 to calculate the 50% effective concentration (EC50) values.

`Cn1cc(S(=O)(=O)N[C@@H]2CCN(S(=O)(=O)C3(C)CC3)C2)c(F)c1C(=O)Nc1ccc(F)c(F)c1` [Compound 2]: the EC50 is below 100 nM.
For the compound `Cn1cc(S(=O)(=O)NC2CCN(C(=O)C(=O)NC3(C)CC3)CC2(F)F)c(Cl)c1C(=O)Nc1cc(F)c(F)c(F)c1` (stereo not shown) [Compound 93], the EC50 was below 100 nM.
In the case of `Cn1cc(S(=O)(=O)NC2CCN(C(=O)C(=O)NC3COC3)CC2(F)F)c(F)c1C(=O)Nc1ccc(F)c(F)c1` (stereo not shown) [Compound 92], the EC50 was below 100 nM.
The same measure for `CC(=O)OCCNC(=O)C(=O)N1CC[C@@H](NS(=O)(=O)c2cn(C)c(C(=O)Nc3cc(F)c(F)c(F)c3)c2F)C1` [Compound 38]: below 100 nM.
